Data taken from US20030003114A1, “Enzyme-based anti-cancer compositions and methods” (priority 2001, published 2003).

Legend:
[1] = system: 24 JK murine sarcoma cells; experiment: Syngeneic tumor model, 24 JK murine sarcoma in C57BL/6 mice; set-up: anti-tumor effectiveness: dose or concentration left out as unconfirmed
Method: In the case where a hexosaminidase is tested for anti-tumor activity on murine tumor cells or tissues, a syngeneic tumor model is used. In this model, tumor cells or tissues are implanted in C57BL/6 mice. As in the SCID mouse model described above, the implanted tumors are allowed to grow to a size of approximately 50 to 100 mm^3 before various amounts of the hexosaminidase are administered to the animal, by any of the means described above. The decrease in tumor size or, preferably, elimination of the tumor from the mouse, is subsequently observed.
In both the SCID and C57BL/6 models described above, the anti-tumor activity of a hexosaminidase is compared to the anti-tumor activity of a known anti-tumor agent. For example, mice containing tumors are treated with doxorubicin. A suitable dose of doxorubicin is 5 mg per kg of body weight of the mice.
A syngeneic tumor model, C57BL/6 mice carrying implanted 24 JK murine sarcoma cells, was used in these studies. The cells were injected subcutaneously into the mouse flank. Five days later, 5 units of chitinase was injected intraperitoneally (IP) into the mouse. Into another mouse was injected 5 mg doxorubicin per kilogram of mouse weight IP on days 5, 7 and 9. Into a third mouse was injected saline on day 5 (i.e., negative control).

fibrosarcoma = experiment: Human fibrosarcoma xenograft in SCID mice, tumor size; format: in vivo; conditions: 5 units injected into the tumor (day 1)
Method: (§1) The effect of hexosaminidases on survival of tumor cells is also tested by administering hexosaminidases to experimental animals that have various tumors. Preferably, the tumors are human tumors or cancer xenograft tissues and the experimental animal is a SCID mouse. Good results have been obtained by transplanting tumor cells or tissues subcutaneously in the animal or behind the fat pad of the mouse. After the tumor cells or tissues are transplanted into the animal, the tumors cells grow and divide. When the tumors reach a visible size (e.g., 0.5-0.8 cm^3) in the SCID mice, a hexosaminidase is dissolved in PBS and various amounts of the hexosaminidase are injected into the tumor (i.e., intratumor injection), injected intraperitoneally (IP) into the animal, or intravenously (IV) into the animal. Single or multiple injections are used. The size of the tumor is subsequently measured to determine the effect of the enzyme on tumor growth and survival. A decrease in size of the tumors is indicative of anti-tumor activity of the hexosaminidase. Preferably, administration of the hexosaminidase results in a significant size reduction of the tumor. […]
A fibrosarcoma was obtained from patients as a biopsy sample and a 0.1 cm^3 piece of the biopsy was implanted into SCID mice. […] Subsequently, the size of the tumors was measured daily.

[2] = system: Ductal carcinoma from breast; experiment: Human breast cancer xenograft in SCID mice, tumor size; format: in vivo; conditions: 5 units injected into the tumor (day 1)
Method: as §1
Ductal carcinoma from breast was obtained from patients as a biopsy sample and a 0.1 cm^3 piece of the biopsy was implanted into SCID mice. […] Subsequently, the size of the tumors was measured daily.

[3] = system: spleen cells from a normal mouse; experiment: MTT dye reduction viability assay, normal cells; format: cell-based; conditions: concentrations up to 1.0 units per ml of culture medium, 3 days, FIG. 1
Source text: Different concentrations of the hexosaminidases are used. […] One method is the MTT assay.

[4] = system: Poorly differentiated carcinoma from human bladder; experiment: Human bladder cancer xenograft in SCID mice, tumor size; format: in vivo; conditions: 5 units injected into the tumor (day 1)
Method: as §1
Poorly differentiated carcinoma from human bladder was obtained from patients as a biopsy sample and a 0.1 cm^3 piece of the biopsy was implanted into SCID mice. […] Subsequently, the size of the tumors was measured daily.

[5] = Chitinase levels in blood of mice after different routes of administration (4-mu-chitotrioside assay of plasma); format: in vivo; conditions: mouse
Method: Thirty-five mg of chitinase (Sigma C-6139) was dissolved in 1.5 ml of PBS. One-half ml of the chitinase solution was injected into each of 3 mice. One mouse was injected intraperitoneally (IP), one was injected intravenously (IV), and one mouse was injected subcutaneously (SC). A fourth mouse was injected with saline as a control. At various times after injection, 15-20 μl of blood was taken from the tail vein of each mouse and immediately mixed with a sodium-EDTA solution (pH 7.4). The cells were centrifuged from the blood and 5 μl of plasma was used in a chitinase assay. In the chitinase assay, 4-methylumbelliferyl-β-D-N, N′, N″-triacetyl-chitotriose (4-mu-chitotrioside) was used as the substrate for chitinase. The plasma sample, in 100 μl of saline, was mixed with 100 μl of 22 μM 4-mu-chitotrioside solution in 0.2 M citric acid buffer (pH 5.2) and incubated in a 37° C. water bath for 15 min. At the end of the incubation, 3.0 ml of 0.3 M glycine buffer (pH 10.6) was added to the mixture to stop the reaction. The fluorescence of the solution at 460 nm was then measured after excitation at 355 nm.

lung cancer cells = experiment: Cultured tumor cells treated with chitinase, cellular damage (electron micrographs); format: cell-based, human; conditions: within hours of treatment, ultimately leading to cell death
[6] = system: Moderately differentiated squamous cell carcinoma from human lung; experiment: Human lung cancer xenograft in SCID mice, tumor size; format: in vivo
Method: as §1
Moderately differentiated squamous cell carcinoma from human lung was obtained from patients as a biopsy sample and a 0.1 cm^3 piece of the biopsy was implanted into SCID mice. […] Subsequently, the size of the tumors was measured daily. […]

[7] = system: Merkel cell cancer (neuroendocrine skin cancer); experiment: Merkel cell cancer xenograft in SCID mice, tumor size; format: in vivo, human; conditions: 5 units injected into the tumor (day 1)
Method: as §1
Merkel cell cancer (neuroendocrine skin cancer) was obtained from patients as a biopsy sample and a 0.1 cm^3 piece of the biopsy was implanted into SCID mice. […] Subsequently, the size of the tumors was measured daily.

[8] = system: human oral carcinoma KB cells; conditions: 3 days culture at 37° C., MTT, FIG. 1
Method: Good results have been obtained by testing the effect of hexosaminidases on the viability of cultured normal and tumor cells is tested by culturing normal cells (e.g., spleen cells from a mouse) and tumor cells (e.g., human oral carcinoma KB cells) in vitro and then adding various concentrations of the hexosaminidase to the cells. Different concentrations of the hexosaminidases are used. At various times after addition of the hexosaminidase, the viability of the cells is determined using one of a variety of methods. One method is the MTT assay. In this assay, cells are exposed to MTT, 3-(4,5-dimethylthiazol-2-yl)2,5-diphenyltetrazolium bromide, which is taken into the cells and reduced by mitochondrial dehydrogenase to a purple formazan, a large molecule which is unable to pass through intact cell membranes, and therefore accumulates in healthy cells. The ability of cells to reduce MTT is an indication of mitochondrial integrity and activity, which is interpreted as a measure of viability.
Fifty thousand spleen cells from a normal mouse, or human oral carcinoma KB cells were cultured. […] This product was dissolved in a solvent (95% ethanol:DMSO; 1:1), added to the cells and the absorbance (540 nm) was determined. The absorbance of the formazan is linearly proportional to the number of viable cells in the culture.

[9] = system: Moderately differentiated adenocarcinoma from prostate; experiment: Human prostate cancer xenograft in SCID mice, tumor size; format: in vivo; conditions: 5 units injected into the tumor (day 1), FIG. 2
Method: as §1
Moderately differentiated adenocarcinoma from prostate was obtained from patients as a biopsy sample and a 0.1 cm^3 piece of the biopsy was implanted into SCID mice. […] Subsequently, the size of the tumors was measured daily.

[10] = system: breast cancer MCF-7 cells; experiment: Cultured tumor cells treated with chitinase, cellular damage (electron micrographs); format: cell-based, human; conditions: within hours of treatment, ultimately leading to cell death
[11] = system: Moderately differentiated adenocarcinoma from human colon; experiment: Human colon cancer xenograft in SCID mice, tumor size; format: in vivo; conditions: 5 units injected into the tumor (day 1), FIG. 2
Method: as §1
Moderately differentiated adenocarcinoma from human colon was obtained from patients as a biopsy sample and a 0.1 cm^3 piece of the biopsy was implanted into SCID mice. […] Subsequently, the size of the tumors was measured daily.

[12] = system: Adenocarcinoma from ovaries; experiment: Human ovarian cancer xenograft in SCID mice, tumor size; format: in vivo; conditions: 5 units injected into the tumor (day 1)
Method: as §1
Adenocarcinoma from ovaries was obtained from patients as a biopsy sample and a 0.1 cm^3 piece of the biopsy was implanted into SCID mice. […] Subsequently, the size of the tumors was measured daily.

Large cell lymphoma = experiment: Human lymphoma xenograft in SCID mice, tumor size; format: in vivo; conditions: 5 units injected into the tumor (day 1), over a period of 7 days, FIG. 2
Method: as §1
Large cell lymphoma was obtained from patients as a biopsy sample and a 0.1 cm^3 piece of the biopsy was implanted into SCID mice. […] Subsequently, the size of the tumors was measured daily.

Malignant melanoma = experiment: Human malignant melanoma xenograft in SCID mice, tumor size; format: in vivo; conditions: 5 units injected into the tumor (day 1)
Method: as §1
Malignant melanoma was obtained from patients as a biopsy sample and a 0.1 cm^3 piece of the biopsy was implanted into SCID mice. […] Subsequently, the size of the tumors was measured daily.

[13] = Observation of treated mice for visible signs of systemic toxicity; format: in vivo; conditions: general statement; high chitinase levels do not appear to cause toxicity in normal tissues
Source text: Such toxicity is compared with toxicity that is present in control animals, animals administered doxorubicin for example.

melanoma cells = experiment: Cultured tumor cells treated with chitinase, cellular damage (electron micrographs); format: cell-based, human; conditions: within hours of treatment, ultimately leading to cell death
[14] = system: prostate cancer LNCaP cells; experiment: Cultured tumor cells treated with chitinase, cellular damage; format: cell-based, human; conditions: within hours of treatment, ultimately leading to cell death
[15] = system: LNCaP prostate cancer cells; experiment: LNCaP prostate cancer cell tumors in SCID mice; format: in vivo, human
Method: The effect of hexosaminidases on survival of tumor cells is also tested by administering hexosaminidases to experimental animals that have various tumors. Preferably, the tumors are human tumors or cancer xenograft tissues and the experimental animal is a SCID mouse. Good results have been obtained by transplanting tumor cells or tissues subcutaneously in the animal or behind the fat pad of the mouse. After the tumor cells or tissues are transplanted into the animal, the tumors cells grow and divide. When the tumors reach a visible size (e.g., 0.5-0.8 cm^3) in the SCID mice, a hexosaminidase is dissolved in PBS and various amounts of the hexosaminidase are injected into the tumor (i.e., intratumor injection), injected intraperitoneally (IP) into the animal, or intravenously (IV) into the animal. Single or multiple injections are used. The size of the tumor is subsequently measured to determine the effect of the enzyme on tumor growth and survival. A decrease in size of the tumors is indicative of anti-tumor activity of the hexosaminidase. Preferably, administration of the hexosaminidase results in a significant size reduction of the tumor. More preferably, the hexosaminidase eliminates the tumor from the SCID mouse. Preferably, such animals will remain free from tumors in the future.
One million LNCaP prostate cancer cells were injected into SCID mice. After the tumors grew to a size of between 0.3-0.6 cm^3, 5 units of Streptomyces chitinase was injected intratumorally, intraperitoneally and intravenously, in separate mice. […] All untreated animals died within 3 months.

[16] = 5 units intratumorally, intraperitoneally and intravenously, in separate mice

## COc1cccc2c1C(=O)c1c(O)c3c(c(O)c1C2=O)C[C@@](O)(C(=O)CO)C[C@@H]3O[C@H]1C[C@H](N)[C@H](O)[C@H](C)O1 [doxorubicin, reference compound]
[1]
  anti-tumor effectiveness: generally ineffective
[1]; 5 mg per kilogram IP on days 5, 7 and 9
  outcome of mice evaluated: eventually died from drug toxicity or progressive tumor growth
[1]; 3 intraperitoneal injections of 5 mg/kg (maximum tolerated dose)
  course of tumor growth: growth attenuation followed by a resumption of progressive growth

## chitinase
fibrosarcoma
  elimination of fibrosarcomas compared with human colon cancer of Example 2: as effectively eliminated
[2]
  elimination of breast tumors compared with human colon cancer of Example 2: as effectively eliminated
[3]
  effect on the viability of the normal mouse spleen cells: little effect
[4]
  elimination of bladder tumors compared with human colon cancer of Example 2: as effectively eliminated
[5]; IP injection
  maximum blood levels relative to those found in IV injection: less than half
  time at which maximum blood levels were reached: 2 to 3 min
  time until which blood levels tapered off: 40 min
  time until which maximum levels remained: 7 to 8 min
[5]; IV injection
  time at which little chitinase was left in the blood: 20 min
[5]; IV injection, within 1 min.
  levels of chitinase in the blood immediately after injection: very high levels
[5]; SC injection
  maximum blood levels relative to blood levels found after IP injection: a third
  time at which maximum blood levels were reached: 2 to 3 min
  time until which blood levels tapered off: 40 min
[1]; additional studies, increased with increasing dosages
  dose dependence of anti-tumor activity: dose dependent
[1]; intraperitoneal injection of 5 Units on day 5 and day 6
  regression of established tumors: complete tumor regression
[1]; single IP injection of 5 units five days after cell injection, FIG. 5
  day until after which detectable growth of 24 JK sarcoma tumor cells was inhibited: > 12 days
[1]; single intraperitoneal injection of 10 Units on day 5
  regression of established tumors: complete tumor regression
Lung cancer cells
  cellular damage after chitinase treatment: significant cellular damage
[6]; 5 units injected into the tumor (day 1), SCID mice
  elimination of lung tumors compared with human colon cancer of Example 2: as effectively eliminated
[6]; 10 days after a single injection of 5 units, FIG. 3b
  tumor size after chitinase treatment: substantially reduced in size
[7]
  elimination of Merkel cell tumors: eliminated
[8]
  concentrations at which chitinase efficiently kills the tumor cells: 0.025 to 0.05 units of chitinase per ml of culture medium
[9]
  period over which prostate tumors were eliminated from the mouse: 7 days
[10]
  cellular damage after chitinase treatment: significant cellular damage
[11]
  period over which human colon cancer was effectively eliminated from the animals: 2 days
[12]
  elimination of ovarian tumors compared with human colon cancer of Example 2: as effectively eliminated
Large cell lymphoma
  change of lymphoma size: reduced in size
Malignant melanoma
  elimination of melanomas compared with human colon cancer of Example 2: as effectively eliminated
[13]
  systemic toxicity: without significant systemic toxicity
Melanoma cells
  cellular damage after chitinase treatment: significant cellular damage
[14]
  cellular damage after chitinase treatment: significant cellular damage
[15]; [16]
  histological staining of tumors compared to saline control tumors: extensive cellular damage and morphological changes
  time after injection at which tumor necrosis was visible: within hours
  tumor regression: complete tumor regression
[15]; 5 units, all untreated animals died within 3 months
  survival of treated animals without tumor recurrence: more than one year
[15]; additional studies
  development of resistance of the tumors to the enzyme: no indication of development of resistance
  tumor elimination with an additional administration of chitinase after the first: more rapidly eliminated
